The text below walks through data of ChEMBL document CHEMBL5500324, “The potential of marine-derived piperazine alkaloids: Sources, structures and bioactivities” (Eur J Med Chem, 2024).

Data set [1] relates to HepG2. The data set is described as follows: Cytotoxicity against human HepG2 cells assessed as reduction in cell viability incubated for 72 hrs by SRB assay. It is filed as functional, cell-based. To be noted: HepG2, 72 h. For orientation: Sulforhodamine B stains cellular protein and so reports cell mass.
The subject of data set [2] is SF-268. Put plainly: Cytotoxicity against human SF-268 cells assessed as reduction in cell viability incubated for 72 hrs by SRB assay. It is filed as functional, cell-based. As to conditions: SF-268, 72 h.
The nature of data set [3]: Cytotoxicity against human Huh7.5 cells assessed as reduction in cell viability incubated for 72 hrs by CCK-8 assay. It is filed as toxicity, cell-based, Huh-7.5. (Tetrazolium dyes change colour on reduction, which living cells bring about.)
Data set [4] deals with DU-145. The data set is described as follows: Cytotoxicity against human DU-145 cells assessed as cell growth inhibition measured after 48 hrs by MTT assay. As to conditions: DU-145, 48 h. It is filed as functional, cell-based.
The subject of data set [5] is QG-56. The data set is described as follows: Cytotoxicity against human QG-56 cells assessed as reduction in cell growth incubated for 24 hrs by MTT assay. The data set is classed as functional, cell-based. As to conditions: QG-56, 24 h.
In data set [6] the test system is KB. Put plainly: Cytotoxicity against human KB cells assessed as inhibition of cell growth. It is filed as functional, cell-based.
The test system of data set [7] is HCT-116. The data set is described as follows: Antiproliferative activity against human HCT-116 cells assessed as reduction in cell viability incubated for 24 hrs by MTT assay. The data set is classed as functional, cell-based. To be noted: HCT-116, 24 h.
Data set [8] relates to BC. The data set is described as follows: Cytotoxicity against human BC cells assessed as inhibition of cell growth. It is filed as functional, cell-based.
The test system of data set [9] is HCT-116. The data set is described as follows: Cytotoxicity against human HCT-116 cells assessed as reduction in cell viability incubated for 48 hrs by Celltiter-Glo assay. The data set is classed as functional, cell-based. To be noted: HCT-116, 48 h. (Cellular ATP, detected with luciferase, serves as a proxy for viable cell number.)
Data set [10] is described as follows: Cytotoxicity against human HaCaT cells incubated for 24 hrs by MTS assay. It is filed as toxicity, cell-based.
Data set [11] relates to A549. The data set is described as follows: Cytotoxicity against human A549 cells assessed as reduction in cell viability incubated for 48 hrs by Celltiter-Glo assay. It is filed as functional, cell-based. As to conditions: A549, 48 h.
Data set [12] deals with MCF7. Put plainly: Cytotoxicity against human MCF7 cells assessed as reduction in cell viability. The data set is classed as functional, cell-based.
For data set [13], the system named is MKN-1. The data set is described as follows: Cytotoxicity against human MKN-1 cells assessed as reduction in cell viability. It is filed as functional, cell-based.
Data set [14] relates to T47D. Put plainly: Antiproliferative activity against human T47D cells incubated for 48 hrs by MTT assay. The data set is classed as functional, cell-based.
Data set [15] concerns U-937. The data set is described as follows: Cytotoxicity against human U-937 cells assessed as inhibition of cell growth. It is filed as functional, cell-based.
Data set [16] has as its system HL-60. Put plainly: Cytotoxicity against human HL-60 cells assessed as reduction in cell growth. The data set is classed as functional, cell-based.
The subject of data set [17] is HEK293. The data set is described as follows: Cytotoxicity against HEK293 cells assessed as cell growth inhibition. The data set is classed as functional, cell-based. As to conditions: Homo sapiens.
Data set [18] concerns MCF7. The data set is described as follows: Cytotoxicity against human MCF7 cells assessed as reduction in cell growth incubated for 72 hrs by SRB assay. It is filed as functional, cell-based. To be noted: MCF7, 72 h.
The test system of data set [19] is MCF7. The data set is described as follows: Cytotoxicity against human MCF7 cells assessed as reduction in cell growth incubated for 48 hrs by SRB assay. It is filed as functional, cell-based. As to conditions: MCF7, 48 h.
The test system of data set [20] is SF-268. Put plainly: Cytotoxicity against human SF-268 cells assessed as reduction in cell growth incubated for 72 hrs by SRB assay. As to conditions: SF-268, 72 h. It is filed as functional, cell-based.
The subject of data set [21] is HepG2. Put plainly: Cytotoxicity against human HepG2 cells assessed as reduction in cell growth incubated for 48 hrs by SRB assay. It is filed as functional, cell-based. To be noted: HepG2, 48 h.
For data set [22], the system named is HCT-116. Put plainly: Cytotoxicity against human HCT-116 cells assessed as reduction in cell viability incubated for 24 hrs by MTT assay. It is filed as functional, cell-based. As to conditions: HCT-116, 24 h.
Data set [23] deals with NCI-H460. Put plainly: Cytotoxicity against human NCI-H460 cells assessed as reduction in cell growth incubated for 72 hrs by SRB assay. The data set is classed as functional, cell-based. To be noted: NCI-H460, 72 h.
The subject of data set [24] is NCI-H460. Put plainly: Cytotoxicity against human NCI-H460 cells assessed as reduction in cell growth incubated for 48 hrs by SRB assay. The data set is classed as functional, cell-based. As to conditions: NCI-H460, 48 h.
Data set [25] has as its system HepG2. The data set is described as follows: Cytotoxicity against human HepG2 cells assessed as reduction in cell growth incubated for 72 hrs by SRB assay. As to conditions: HepG2, 72 h. It is filed as functional, cell-based.
Data set [26] has as its system SF-268. The data set is described as follows: Cytotoxicity against human SF-268 cells assessed as reduction in cell growth incubated for 48 hrs by SRB assay. It is filed as functional, cell-based. As to conditions: SF-268, 48 h.
In data set [27] the test system is RKO. Put plainly: Cytotoxicity against human RKO cells assessed as inhibition of cell growth measured after 48 hrs by MTT assay. It is filed as functional, cell-based.
The test system of data set [28] is A549. The data set is described as follows: Cytotoxicity against human A549 cells. The data set is classed as functional, cell-based.
Data set [29] deals with SK-MEL-28. Put plainly: Cytotoxicity against human SK-MEL-28 cells assessed as inhibition of cell growth. It is filed as functional, cell-based.
Data set [30] concerns A549. Put plainly: Cytotoxicity against human A549 cells assessed as inhibition of cell growth. It is filed as functional, cell-based.
In data set [31] the test system is CAL-27. The data set is described as follows: Cytotoxicity against human CAL-27 cells. The data set is classed as functional, cell-based.
The test system of data set [32] is NCI-H929. Put plainly: Cytotoxicity against human NCI-H929 cells. The data set is classed as functional, cell-based.
Data set [33] concerns ECV-304. Put plainly: Cytotoxicity against human ECV-304 cells. The data set is classed as functional, cell-based.
Data set [34] has as its system P388. Put plainly: Cytotoxicity against mouse P388 cells assessed as inhibition of cell growth. The data set is classed as functional, cell-based.
Data set [35] deals with HT-29. The data set is described as follows: Cytotoxicity against human HT-29 cells assessed as inhibition of cell growth. The data set is classed as functional, cell-based.

Values after ≈ are worked out from the molar mass of the structure shown.

Turning to `C=CC(C)(C)c1[nH]c2ccccc2c1/C=C1\NC(=O)[C@@]2(CC[C@@]3(O)c4cc(OC)cc(O)c4C(=O)c4c(O)cc(C)c2c43)NC1=O`, the figures for the IC50 in data set [1] and in data set [2] were 15000 nM and 12500 nM, respectively.
`CO[C@@H]1CC(=O)[C@@H]2C[C@@]34SS[C@]5(C[C@H]6C(=O)CC(=O)[C@H](O)[C@H]6N5C3=O)C(=O)N4[C@@H]2[C@H]1O`: in data set [3], the IC50 (commonly the point on the concentration scale where inhibition reaches its midpoint) at 72 h turned out to be 9520 nM.
For the compound `COc1cc2c(cc1O)CCNC21CS[C@@H]2c3c(OC(C)=O)c(C)c4c(c3[C@H](COC1=O)N1[C@@H]2[C@H]2c3c(cc(C)c(OC)c3O)C[C@@H]([C@@H]1C#N)N2C)OCO4` (stereo partly specified), the IC50 stood at 0.66 nM in data set [4]; 1.8 nM in data set [5]; 0.034 nM in data set [6]; 0.4 nM in data set [7]; 2.5 nM in data set [8].
In the case of `CCCCCCCCC[C@@H](CC(=O)NCCCCN)N1CC(=O)N(O)[C@H](Cc2ccccc2)C1=O`, the concentration for half-maximal inhibition (IC50) in [9] was 39500 nM; in data set [11] it was 37900 nM. Besides, in [10], the midpoint of inhibition, the IC50 at 24 h, lay at 37500 nM.
Regarding `CO[C@H]1c2c([nH]c3ccccc23)[C@H](C=C(C)C)N2C(=O)[C@@H]3CCCN3C(=O)[C@@]12O`, the concentration for half-maximal inhibition (IC50) in data set [12] was determined as 10800 nM; in data set [13] it was 20700 nM.
On to `C=CC(C)(C)c1[nH]c2ccccc2c1/C=C1\NC(=O)[C@@]2(CC[C@]3(O)c4cc(C)cc(O)c4C(=O)c4c(O)cc(OC)c2c43)NC1=O`, for which the values for the half-inhibitory concentration (IC50) in data set [1] and in [2] were 37300 nM and 30100 nM, respectively.
Turning to `CC(C)=CCC/C(C)=C/COc1ccc(/C=C2\NC(=O)[C@H](C)N(O)C2=O)cc1`, the 50% inhibitory concentration (IC50) in [14], in data set [15] and in data set [16] was 11.6 µg/mL (≈ 30.2 µM) each time.
As for `CC(C)=CCC/C(C)=C/COc1ccc(/C=C2/NC(=O)[C@H](C)N(O)C2=O)cc1`, the half-inhibitory concentration (IC50) in data set [14], in data set [15] and in data set [16] was 11.6 µg/mL (≈ 30.2 µM) each time.
As to `CC(=O)O[C@H]1C=CC=C2C[C@]34SS[C@](CO)(C(=O)N3[C@@H]21)N(C)C4=O`, the half-maximal inhibitory concentration (IC50) in data set [17] is 4490 nM; in [18], 220 nM; in data set [19] it was 220 nM; in data set [20], 250 nM; in data set [21], 490 nM; in [22] it was 890 nM. Further, the concentration for half-maximal inhibition (IC50) in [23] worked out at 490 nM; in data set [24], 320 nM; in data set [25] it was 320 nM; in [26], 250 nM; in [27], 1240 nM.
Consider `COc1cc2c(cc1O)CCN[C@@]21CS[C@@H]2c3c(OC(C)=O)c(C)c4c(c3[C@H](COC1=O)N1[C@@H]2[C@H]2c3c(cc(C)c(OC)c3O)C[C@@H]([C@@H]1O)N2C)OCO4`, for which the IC50 in data set [28] came out at 1.5 nM; in data set [29], 0.005 µg/mL (≈ 0.00656 µM); in data set [30], 0.0002 µg/mL (≈ 0.000263 µM); in [31], 0.9 nM; in data set [32], 1.1 nM; in data set [33], 1.6 nM. Besides, the values for the concentration for half-maximal inhibition (IC50) in data set [34] and in [35] were 200 nM and 0.0005 µg/mL (≈ 0.000656 µM), respectively.
For `CO[C@H]1CC(=O)[C@@H]2C[C@@]34SS[C@]5(C[C@H]6C(=O)C[C@H](OC)[C@H](O)[C@H]6N5C3=O)C(=O)N4[C@@H]2[C@H]1O`, in data set [3], the half-inhibitory concentration (IC50) at 72 h turned out to be 4880 nM.
